Laboratory results as given in ChEMBL document CHEMBL4265951, “Multi-target-directed ligands for Alzheimer's disease: Discovery of chromone-based monoamine oxidase/cholinesterase inhibitors” (Eur J Med Chem, 2018).
Active and inactive are the calls of the source. The calls are words filed in the database; no cut-off is given here.

Assays:
Cholinesterase [1] = molecular target: T1, Cholinesterase (Homo sapiens, UniProt P06276); experiment: Inhibition of human serum BuChE at 10 uM using butyrylthiocholine as substrate pretreated for 5 mins followed by substrate addition measured after 5 mins by Ellman's method
T1 sequence (P06276 whole entry): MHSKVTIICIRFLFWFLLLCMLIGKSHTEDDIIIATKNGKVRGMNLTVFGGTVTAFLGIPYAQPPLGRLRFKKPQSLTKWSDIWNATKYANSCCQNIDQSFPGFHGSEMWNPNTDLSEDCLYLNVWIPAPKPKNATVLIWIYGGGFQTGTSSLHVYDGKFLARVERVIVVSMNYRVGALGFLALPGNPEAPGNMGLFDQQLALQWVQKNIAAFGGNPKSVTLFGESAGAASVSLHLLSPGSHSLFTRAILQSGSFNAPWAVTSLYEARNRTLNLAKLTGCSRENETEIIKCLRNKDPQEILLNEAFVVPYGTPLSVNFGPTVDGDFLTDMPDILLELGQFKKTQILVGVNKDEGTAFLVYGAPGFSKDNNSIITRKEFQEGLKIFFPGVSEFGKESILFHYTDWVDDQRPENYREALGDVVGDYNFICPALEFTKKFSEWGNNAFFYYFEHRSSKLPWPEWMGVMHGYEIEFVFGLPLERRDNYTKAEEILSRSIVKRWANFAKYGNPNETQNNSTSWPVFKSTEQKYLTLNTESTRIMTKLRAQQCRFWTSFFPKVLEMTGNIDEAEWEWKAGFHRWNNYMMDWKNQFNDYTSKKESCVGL

Acetylcholinesterase [2] = molecular target: T2, Acetylcholinesterase (Homo sapiens, UniProt P22303); experiment: Inhibition of human AChE using acetylthiocholine iodide as substrate pretreated for 5 mins followed by substrate addition measured after 5 mins by Ellman's method
T2 sequence (P22303 whole entry): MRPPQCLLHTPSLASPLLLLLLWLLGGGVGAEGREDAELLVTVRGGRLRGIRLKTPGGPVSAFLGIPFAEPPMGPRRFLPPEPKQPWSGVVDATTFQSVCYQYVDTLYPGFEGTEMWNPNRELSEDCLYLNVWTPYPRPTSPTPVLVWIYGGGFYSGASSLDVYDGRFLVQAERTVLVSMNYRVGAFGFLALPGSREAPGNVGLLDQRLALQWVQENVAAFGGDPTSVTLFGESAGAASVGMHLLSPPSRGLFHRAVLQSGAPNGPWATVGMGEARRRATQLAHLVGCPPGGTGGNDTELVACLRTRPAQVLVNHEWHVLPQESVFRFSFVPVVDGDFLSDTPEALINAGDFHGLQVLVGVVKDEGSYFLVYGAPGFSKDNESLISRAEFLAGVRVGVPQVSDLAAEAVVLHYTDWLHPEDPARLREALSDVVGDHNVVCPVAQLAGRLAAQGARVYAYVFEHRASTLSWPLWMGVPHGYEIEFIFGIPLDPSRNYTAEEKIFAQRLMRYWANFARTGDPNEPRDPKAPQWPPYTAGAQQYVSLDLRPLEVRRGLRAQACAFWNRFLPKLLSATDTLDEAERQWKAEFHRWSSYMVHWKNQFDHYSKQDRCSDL

[3] = molecular target: T3, Amine oxidase [flavin-containing] B (Homo sapiens, UniProt P27338); experiment: Inhibition of human recombinant MAOB expressed in baculovirus infected BTI-TN-5B1- 4 cells using p-tyramine as substrate assessed as decrease in H2O2 production at 10 uM by amplex red-based fluorescence assay
T3 sequence (P27338 whole entry): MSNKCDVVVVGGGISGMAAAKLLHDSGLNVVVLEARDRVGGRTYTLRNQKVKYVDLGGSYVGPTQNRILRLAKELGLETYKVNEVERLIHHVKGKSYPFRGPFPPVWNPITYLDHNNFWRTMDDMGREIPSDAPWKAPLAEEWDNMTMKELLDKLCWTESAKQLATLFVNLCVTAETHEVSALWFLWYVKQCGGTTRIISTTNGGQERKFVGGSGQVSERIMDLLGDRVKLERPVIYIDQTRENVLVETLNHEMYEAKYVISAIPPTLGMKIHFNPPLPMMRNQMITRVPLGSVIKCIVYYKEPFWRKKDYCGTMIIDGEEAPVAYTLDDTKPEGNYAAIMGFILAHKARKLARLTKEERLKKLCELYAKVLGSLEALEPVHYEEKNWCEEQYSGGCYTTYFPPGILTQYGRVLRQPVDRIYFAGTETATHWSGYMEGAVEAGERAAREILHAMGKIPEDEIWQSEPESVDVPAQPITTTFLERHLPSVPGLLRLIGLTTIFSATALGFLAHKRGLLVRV

[4] = molecular target: T4, Amine oxidase [flavin-containing] A (Homo sapiens, UniProt P21397); experiment: Inhibition of human recombinant microsomal MAOA expressed in baculovirus infected BTI-TN-5B1- 4 cells using p-tyramine as substrate assessed as decrease in H2O2 production at 10 uM by amplex red-based fluorescence assay
T4 sequence (P21397 whole entry): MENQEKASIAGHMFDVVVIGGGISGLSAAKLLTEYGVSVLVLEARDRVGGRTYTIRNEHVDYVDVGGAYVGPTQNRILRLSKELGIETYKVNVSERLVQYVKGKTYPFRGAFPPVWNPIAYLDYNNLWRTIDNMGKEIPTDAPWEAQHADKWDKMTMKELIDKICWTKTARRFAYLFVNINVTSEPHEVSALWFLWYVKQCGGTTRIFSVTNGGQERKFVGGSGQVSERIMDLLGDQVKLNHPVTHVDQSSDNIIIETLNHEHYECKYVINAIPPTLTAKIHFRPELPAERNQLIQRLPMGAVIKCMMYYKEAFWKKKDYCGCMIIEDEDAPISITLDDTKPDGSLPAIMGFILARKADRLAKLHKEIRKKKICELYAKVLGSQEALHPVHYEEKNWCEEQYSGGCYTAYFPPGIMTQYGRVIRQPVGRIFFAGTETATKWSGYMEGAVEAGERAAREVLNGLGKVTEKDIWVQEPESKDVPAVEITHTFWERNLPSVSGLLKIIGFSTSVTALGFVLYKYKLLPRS

in vitro = details: PAMPA
Description: Effective permeability of the compound at 1 mg/ml after 4 hrs by BBB-PAMPA method

Acetylcholinesterase [5] = molecular target: T2, Acetylcholinesterase; experiment: Inhibition of human AChE at 10 uM using acetylthiocholine iodide as substrate pretreated for 5 mins followed by substrate addition measured after 5 mins by Ellman's method
[6] = molecular target: T3, Amine oxidase [flavin-containing] B; experiment: biochemical; type: cell-based
Description: Inhibition of human recombinant MAOB expressed in baculovirus infected BTI-TN-5B1- 4 cells using p-tyramine as substrate assessed as decrease in H2O2 production by amplex red-based fluorescence assay

Cholinesterase [7] = molecular target: T1, Cholinesterase; experiment: Inhibition of human serum BuChE using butyrylthiocholine as substrate pretreated for 5 mins followed by substrate addition measured after 5 mins by Ellman's method
Beta-secretase 1 = Beta-secretase 1 (Homo sapiens, UniProt P56817); experiment: Inhibition of human BACE1 using rhodamine-EVNLDAEFK-quencher as substrate after 60 mins by FRET assay
Chain of Beta-secretase 1 (P56817 whole entry): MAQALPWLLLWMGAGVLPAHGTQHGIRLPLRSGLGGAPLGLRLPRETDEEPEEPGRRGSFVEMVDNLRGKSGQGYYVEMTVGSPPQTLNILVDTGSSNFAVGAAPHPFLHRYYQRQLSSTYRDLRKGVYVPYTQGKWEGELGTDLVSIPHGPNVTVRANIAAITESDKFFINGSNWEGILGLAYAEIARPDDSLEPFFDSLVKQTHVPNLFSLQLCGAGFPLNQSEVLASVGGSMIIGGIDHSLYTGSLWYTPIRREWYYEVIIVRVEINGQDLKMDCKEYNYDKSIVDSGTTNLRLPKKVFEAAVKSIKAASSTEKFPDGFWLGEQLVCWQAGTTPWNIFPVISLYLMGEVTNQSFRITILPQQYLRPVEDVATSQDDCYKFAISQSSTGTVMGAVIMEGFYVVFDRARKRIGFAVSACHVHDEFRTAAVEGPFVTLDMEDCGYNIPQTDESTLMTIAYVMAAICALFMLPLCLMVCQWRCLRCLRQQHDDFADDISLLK

[8] = molecular target: T4, Amine oxidase [flavin-containing] A; experiment: biochemical
Description: Inhibition of human recombinant microsomal MAOA expressed in baculovirus infected BTI-TN-5B1- 4 cells using p-tyramine as substrate assessed as decrease in H2O2 production by amplex red-based fluorescence assay

SMILES	inhibition (Cholinesterase [1])	IC50 (Acetylcholinesterase [2]) [µM]	inhibition (INH) [3]	inhibition (INH) [4]	Papp at 4 h, 1 mg/ml (in vitro) [×10⁻⁶ cm/s]	inhibition (Acetylcholinesterase [5])	IC50 [6] [µM]	IC50 (Cholinesterase [7]) [µM]	IC50 (Beta-secretase 1) [µM]	IC50 [8] [µM]
COc1ccc(NC(=O)c2coc3ccc(/C=C/C(=O)OCCN(C)C)cc3c2=O)cc1	inactive	3.54	Not Active	Not Active						
CCN(CC)CCOC(=O)/C=C/c1ccc2occ(C(=O)Nc3ccc(OC)cc3)c(=O)c2c1	inactive	5.43	Not Active	Not Active						
Cc1ccc(NC(=O)c2coc3ccc(/C=C/C(=O)O)cc3c2=O)cc1	inactive		Not Active	Not Active	1.6	inactive				
CN(C)CCOC(=O)/C=C/c1ccc2oc(C(=O)Nc3ccccc3)cc(=O)c2c1		0.74		Not Active	3.6		2.28	1.57	> 10	
CCN(CC)CCOC(=O)/C=C/c1ccc2oc(C(=O)Nc3ccc(Cl)cc3)cc(=O)c2c1	inactive	0.86	Not Active	Not Active						
O=C(O)/C=C/c1ccc2oc(C(=O)Nc3cccc(Cl)c3)cc(=O)c2c1	inactive		Not Active	Not Active		inactive				
CCN(CC)CCOC(=O)/C=C/c1ccc2occ(C(=O)Nc3ccccc3)c(=O)c2c1	inactive		Not Active	Not Active		inactive				
Cc1ccc(NC(=O)c2cc(=O)c3cc(/C=C/C(=O)OCCN(C)C)ccc3o2)cc1C	inactive	0.21	Not Active	Not Active						
CCN(CC)CCOC(=O)/C=C/c1ccc2oc(C(=O)Nc3ccc(OC)cc3)cc(=O)c2c1	inactive	1.14	Not Active	Not Active						
O=C(O)/C=C/c1ccc2oc(C(=O)Nc3ccc(Cl)cc3)cc(=O)c2c1	inactive		Not Active	Not Active		inactive				
Cc1ccc(NC(=O)c2cc(=O)c3cc(/C=C/C(=O)O)ccc3o2)cc1	inactive	5.1	Not Active	Not Active	1.5					
CCN(CC)CCOC(=O)/C=C/c1ccc2oc(C(=O)Nc3ccc(C)c(C)c3)cc(=O)c2c1	inactive	2.47		Not Active			2.54			
CN(C)CCOC(=O)/C=C/c1ccc2occ(C(=O)Nc3ccc(Cl)cc3)c(=O)c2c1	inactive	9.32		Not Active			0.72			
CCN(CC)CCOC(=O)/C=C/c1ccc2oc(C(=O)Nc3ccccc3)cc(=O)c2c1	inactive	3.47	Not Active	Not Active						
Cc1ccc(NC(=O)c2coc3ccc(/C=C/C(=O)OCCN(C)C)cc3c2=O)cc1		0.97		Not Active	9.7		2.37	7.42	> 10	
COc1ccc(NC(=O)c2cc(=O)c3cc(/C=C/C(=O)OCCN(C)C)ccc3o2)cc1	inactive	0.91	Not Active							4.91
CCN(CC)CCOC(=O)/C=C/c1ccc2occ(C(=O)Nc3cccc(Cl)c3)c(=O)c2c1	inactive	8.54		Not Active			1.25			

SMILES	inhibition (Cholinesterase [1])	IC50 (Acetylcholinesterase [2]) [µM]	inhibition (INH) [3]	inhibition (INH) [4]	Papp at 4 h, 1 mg/ml (in vitro) [×10⁻⁶ cm/s]	inhibition (Acetylcholinesterase [5])	IC50 [6] [µM]	IC50 (Cholinesterase [7]) [µM]	IC50 (Beta-secretase 1) [µM]	IC50 [8] [µM]
CN(C)CCOC(=O)/C=C/c1ccc2oc(C(=O)Nc3cccc(Cl)c3)cc(=O)c2c1	inactive	5.92	Not Active	Not Active						
O=C(O)/C=C/c1ccc2occ(C(=O)Nc3cccc(Cl)c3)c(=O)c2c1	inactive		Not Active	Not Active		inactive				
COc1ccc(NC(=O)c2cc(=O)c3cc(/C=C/C(=O)O)ccc3o2)cc1	inactive	7.43	Not Active	Not Active						
COc1ccc(NC(=O)c2coc3ccc(/C=C/C(=O)O)cc3c2=O)cc1	inactive	8.7	Not Active	Not Active						
O=C(O)/C=C/c1ccc2oc(C(=O)Nc3ccccc3)cc(=O)c2c1	inactive	5.99	Not Active	Not Active	0.9					
CN(C)CCOC(=O)/C=C/c1ccc2oc(C(=O)Nc3ccc(Cl)cc3)cc(=O)c2c1	inactive	1.22	Not Active	Not Active						
Cc1ccc(NC(=O)c2cc(=O)c3cc(/C=C/C(=O)O)ccc3o2)cc1C	inactive		Not Active	Not Active		inactive				
CN(C)CCOC(=O)/C=C/c1ccc2occ(C(=O)Nc3cccc(Cl)c3)c(=O)c2c1	inactive			Not Active		inactive	2.21			
CCN(CC)CCOC(=O)/C=C/c1ccc2oc(C(=O)Nc3ccc(C)cc3)cc(=O)c2c1	inactive	9.87	Not Active	Not Active						
Cc1ccc(NC(=O)c2coc3ccc(/C=C/C(=O)OCCN(C)C)cc3c2=O)cc1C	inactive			Not Active		inactive	3.65			
CCN(CC)CCOC(=O)/C=C/c1ccc2occ(C(=O)Nc3ccc(Cl)cc3)c(=O)c2c1	inactive	7.68	Not Active	Not Active						
Cc1ccc(NC(=O)c2coc3ccc(/C=C/C(=O)O)cc3c2=O)cc1C	inactive			Not Active		inactive	4.52			
CCN(CC)CCOC(=O)/C=C/c1ccc2occ(C(=O)Nc3ccc(C)cc3)c(=O)c2c1	inactive	8.99	Not Active	Not Active						
CCN(CC)CCOC(=O)/C=C/c1ccc2occ(C(=O)Nc3ccc(C)c(C)c3)c(=O)c2c1	inactive		Not Active	Not Active						
CCN(CC)CCOC(=O)/C=C/c1ccc2oc(C(=O)Nc3cccc(Cl)c3)cc(=O)c2c1	inactive	4.45	Not Active	Not Active						
O=C(O)/C=C/c1ccc2occ(C(=O)Nc3ccc(Cl)cc3)c(=O)c2c1	inactive		Not Active	Not Active		inactive				
